Like-named read-outs stand apart in the source and are kept apart here.
Columns and labels:
[1] = system: IL-4; test: Cytokine assay: IL-4 release from PHA-L stimulated human PBMCs; type: cell-based; details: read-out: IL4 IC50
In short: (§1)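 IC50 values came from four-parameter logistic fits of supernatant cytokine, which was quantified by HTRF. Mitogen stimulation used PHA-L at a final 3.5 μg/mL on about 250,000 thawed human PBMCs per well, in serum-containing RPMI medium with 0.25% DMSO, for 48 h.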

[2] = molecular target: PDE4B (aa 152-484, Uniprot ID Q07343) (Homo sapiens (Human), UniProt Q07343); test: PDE4 SPA assay (scintillation proximity assay); type: biochemical; details: read-out: PDE4B2 IC50
In short: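 PDE4B (aa 152-484, ~81.6 pM) preincubated ~10 min with compound, then 1 μM ³H/unlabeled cAMP added in Tris pH 7.5, 1.3 mM MgCl2, 0.004% Brij 35, ~2% DMSO; 30 min at RT. Product captured on SPA beads and counted; IC50 by four-parameter logistic fit.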

[3] = system: IL-13; test: Cytokine assay: IL-13 release from PHA-L stimulated human PBMCs; type: cell-based; details: read-out: IL13 IC50
In short: as §1

[4] = system: IFNγ; test: Cytokine assay: IFNγ release from PHA-L stimulated human PBMCs; type: cell-based
In short: as §1

Sequence of PDE4B (aa 152-484, Uniprot ID Q07343) (Q07343 324-656): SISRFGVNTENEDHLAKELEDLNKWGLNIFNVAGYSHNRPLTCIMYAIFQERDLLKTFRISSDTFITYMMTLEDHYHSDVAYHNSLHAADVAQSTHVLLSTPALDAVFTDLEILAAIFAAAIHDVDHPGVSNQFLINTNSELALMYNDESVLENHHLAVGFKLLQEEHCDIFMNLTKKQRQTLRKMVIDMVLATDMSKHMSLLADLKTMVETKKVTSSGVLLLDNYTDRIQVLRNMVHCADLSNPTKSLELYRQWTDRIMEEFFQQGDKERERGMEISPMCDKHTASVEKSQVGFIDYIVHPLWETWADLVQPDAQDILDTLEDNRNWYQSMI

| IC50 ([1]; Homo sapiens, PBMC) [nM] | IC50 [2] [nM] | IC50 ([3]; Homo sapiens, PBMC) [nM] | IC50 ([4]; Homo sapiens, PBMC) [nM] | IC50 [1] [nM] | IC50 [3] [nM] | IC50 [4] [nM] | SMILES |
| --- | --- | --- | --- | --- | --- | --- | --- |
| 233 | 8.23 | 10000 | 76 |  |  |  | CCCOc1c(OC)ccc(-c2cccc(C3=CB(O)OC3)c2)c1C#N [Example 43, 3′-(2-hydroxy-2,5-dihydro-1,2-oxaborol-4-yl)-4-methoxy-3-propoxy-[1,1′-biphenyl]-2-carbonitrile] |
| 7.22 | 2.5 | 167 | 1.34 |  |  |  | CCOc1cc(-c2cncc(C3COB(O)C3)c2)cc(F)c1OC (centres unmarked) [Example 44, 4-(5-(3-ethoxy-5-fluoro-4-methoxyphenyl)pyridin-3-yl)-1,2-oxaborolan-2-ol] |
| 11.8 | 3.46 | 317 | 3.77 |  |  |  | CCOc1cc(-c2cncc(C3COB(O)C3)c2)c(F)cc1OC (centres unmarked) [Example 46, 4-(5-(5-ethoxy-2-fluoro-4-methoxyphenyl)pyridin-3-yl)-1,2-oxaborolan-2-ol] |
| 4.11 | 3.01 | 143 | 1.54 |  |  |  | CCOc1cc(-c2cncc(C3COB(O)C3)c2)c(Cl)cc1OC (centres unmarked) [Example 47, 4-(5-(2-chloro-5-ethoxy-4-methoxyphenyl)pyridin-3-yl)-1,2-oxaborolan-2-ol] |
| 0.82 | 0.12 | 252 | 0.98 |  |  |  | CCCOc1nc(-c2cncc(C3COB(O)C3)c2)c(F)cc1OC (centres unmarked) [Example 48, 4-(3-fluoro-5-methoxy-6-propoxy-[2,3′-bipyridin]-5′-yl)-1,2-oxaborolan-2-ol] |
| 3.73 | 1.27 | 337 | 1.64 |  |  |  | CCCOc1cc(-c2cncc(C3COB(O)C3)c2)cnc1OC (centres unmarked) [Example 51, 4-(6′-methoxy-5′-propoxy-[3,3′-bipyridin]-5-yl)-1,2-oxaborolan-2-ol] |
| 14.6 | 9.25 | 2610 | 5.74 |  |  |  | CCOc1cc(-c2cc(C3COB(O)C3)cnc2C)ccc1OC (centres unmarked) [Example 52, 4-(5-(3-ethoxy-4-methoxyphenyl)-6-methylpyridin-3-yl)-1,2-oxaborolan-2-ol] |
| 4.87 | 1.41 | 115 | 0.6 |  |  |  | CCOc1cc(-c2cncc(C3COB(O)C3)c2C)ccc1OC (centres unmarked) [Example 53, 4-(5-(3-ethoxy-4-methoxyphenyl)-4-methylpyridin-3-yl)-1,2-oxaborolan-2-ol] |
| 5.58 | 7.77 | 1490 | 4.2 |  |  |  | CCCOc1cc(-c2nc(C)cc(C3COB(O)C3)n2)ccc1OC (centres unmarked) [Example 54, 4-(2-(4-methoxy-3-propoxyphenyl)-6-methylpyrimidin-4-yl)-1,2-oxaborolan-2-ol] |
|  | 2.21 |  |  | 3.94 | 576 | 2.27 | CCCOc1cc(-c2nc(C3COB(O)C3)cc(C(F)(F)F)n2)ccc1OC (centres unmarked) [Example 55, 4-(2-(4-methoxy-3-propoxyphenyl)-6-(trifluoromethyl)pyrimidin-4-yl)-1,2-oxaborolan-2-ol] |
| 68 | 2.81 | 446 | 3.62 |  |  |  | CCOc1cc(-c2cncc(C3COB(O)C3)n2)ccc1OC (centres unmarked) [Example 56, 4-(6-(3-ethoxy-4-methoxyphenyl)pyrazin-2-yl)-1,2-oxaborolan-2-ol] |
| 7.54 | 10.2 | 239 | 2.29 |  |  |  | CCCOc1cc(-c2nc(CO)cc(C3COB(O)C3)n2)ccc1OC (centres unmarked) [Example 57, 4-(6-(hydroxymethyl)-2-(4-methoxy-3-propoxyphenyl)pyrimidin-4-yl)-1,2-oxaborolan-2-ol] |
| 163 | 0.72 | 103 | 1.81 |  |  |  | CCOc1cc(-c2nc(C3COB(O)C3)cs2)ccc1OC (centres unmarked) [Example 58, 4-(2-(3-ethoxy-4-methoxyphenyl)thiazol-4-yl)-1,2-oxaborolan-2-ol] |
| 2.04 | 0.34 | 308 | 0.53 |  |  |  | CCCOc1nc(-c2cncc(C3COB(O)C3)c2)ccc1OC (centres unmarked) [Example 60, 4-(5-methoxy-6-propoxy-[2,3′-bipyridin]-5′-yl)-1,2-oxaborolan-2-ol] |
| 57.9 | 1.62 | 312 | 2.75 |  |  |  | COc1ccc(-c2cccc(C3COB(O)C3)c2)cc1OCCF (centres unmarked) [Example 63, 4-(3′-(2-fluoroethoxy)-4′-methoxy-[1,1′-biphenyl]-3-yl)-1,2-oxaborolan-2-ol] |
| 4.85 | 0.47 | 369 | 1.5 |  |  |  | COc1ccc(-c2cncc(C3COB(O)C3)c2)cc1OC1CSC1 (centres unmarked) [Example 68, 4-(5-(4-methoxy-3-(thietan-3-yloxy)phenyl)pyridin-3-yl)-1,2-oxaborolan-2-ol] |

| IC50 ([1]; Homo sapiens, PBMC) [nM] | IC50 [2] [nM] | IC50 ([3]; Homo sapiens, PBMC) [nM] | IC50 ([4]; Homo sapiens, PBMC) [nM] | IC50 [1] [nM] | IC50 [3] [nM] | IC50 [4] [nM] | SMILES |
| --- | --- | --- | --- | --- | --- | --- | --- |
| 6.51 | 4.39 | 373 | 3.84 |  |  |  | CCOc1cc(-c2cncc(C3COB(O)C3)c2)c(C)cc1OC (centres unmarked) [Example 69, 4-(5-(5-ethoxy-4-methoxy-2-methylphenyl)pyridin-3-yl)-1,2-oxaborolan-2-ol] |
| 103 | 0.85 | 375 | 6.21 |  |  |  | CCOc1cc(-c2nc(C3COB(O)C3)ns2)ccc1OC (centres unmarked) [Example 72, 4-(5-(3-ethoxy-4-methoxyphenyl)-1,2,4-thiadiazol-3-yl)-1,2-oxaborolan-2-ol] |
| 49.9 | 2.19 | 384 | 1.66 |  |  |  | CCOc1c(OC)ccc(-c2cncc(C3COB(O)C3)c2)c1F (centres unmarked) [Example 73, 4-(5-(3-ethoxy-2-fluoro-4-methoxyphenyl)pyridin-3-yl)-1,2-oxaborolan-2-ol] |
| 125 | 4.52 | 395 | 5.98 |  |  |  | COc1ccc(-c2cccc(C3COB(O)C3)c2)cc1OC(C)C (centres unmarked) [Example 75, 4-(3′-isopropoxy-4′-methoxy-[1,1′-biphenyl]-3-yl)-1,2-oxaborolan-2-ol] |
|  | 10 |  |  | 5.75 | 403 | 2.17 | CCCOc1cc(-c2nc(CO)cc(C3COB(O)C3)n2)ccc1OC (centres unmarked) [Example 76, 4-(6-(hydroxymethyl)-2-(4-methoxy-3-propoxyphenyl)pyrimidin-4-yl)-1,2-oxaborolan-2-ol] |
| 40.8 | 2.4 | 415 | 2.61 |  |  |  | CCOc1cc(-c2cccc(C3COB(O)C3)c2)ccc1OC (centres unmarked) [Example 77, 4-(3′-ethoxy-4′-methoxy-[1,1′-biphenyl]-3-yl)-1,2-oxaborolan-2-ol] |
| 19.1 | 0.55 |  |  |  | 416 | 1.35 | COc1ccc(-c2cncc(C3COB(O)C3)c2)cc1OC1CCSC1 (centres unmarked) [Example 78, 4-(5-(4-methoxy-3-((tetrahydrothiophen-3-yl)oxy)phenyl)pyridin-3-yl)-1,2-oxaborolan-2-ol] |
|  | 1.38 |  |  | 13.3 | 748 | 0.82 | COc1ccc(-c2cncc(C3COB(O)C3)c2)cc1OC1CCSC1 (centres unmarked) [Example 79, 4-(5-(4-methoxy-3-((tetrahydrothiophen-3-yl)oxy)phenyl)pyridin-3-yl)-1,2-oxaborolan-2-ol] |
|  | 1.34 |  |  | 19.8 | 2150 | 4.62 | COc1ccc(-c2cncc(C3COB(O)C3)c2)cc1OC1CCSC1 (centres unmarked) [Example 80, 4-(5-(4-methoxy-3-((tetrahydrothiophen-3-yl)oxy)phenyl)pyridin-3-yl)-1,2-oxaborolan-2-ol] |
|  | 2.36 |  | 1.62 | 54.4 | 858 |  | CCCOc1c(OC)ccc(-c2cncc(C3COB(O)C3)c2)c1F (centres unmarked) [Example 81, 4-(5-(2-fluoro-4-methoxy-3-propoxphenyl)pyridin-3-yl)-1,2-oxaborolan-2-ol] |
| 0.9 | 1.24 | 444 | 0.44 |  |  |  | CCCOc1cc(-c2cncc(C3COB(O)C3)c2C)ccc1OC (centres unmarked) [Example 84, 4-(5-(4-methoxy-3-propoxyphenyl)-4-methylpyridin-3-yl)-1,2-oxaborolan-2-ol] |
| 105 | 7.26 | 1330 | 5 |  |  |  | CCCOc1c(OC)ccc(-c2cccc(C3COB(O)C3)n2)c1C#N (centres unmarked) [Example 86, 6-(6-(2-hydroxy-1,2-oxaborolan-4-yl)pyridin-2-yl)-3-methoxy-2-propoxybenzonitrile] |
| 63.7 | 2.64 | 609 | 6.14 |  |  |  | CCCOc1cc(-c2cccc(C3COB(O)C3)c2)ccc1OC (centres unmarked) [Example 88, 4-(4′-methoxy-3′-propoxy-[1,1′-biphenyl]-3-yl)-1,2-oxaborolan-2-ol] |
| 5.9 | 3 | 460 | 3.92 |  |  |  | CCOc1cc(-c2nc(C3COB(O)C3)cs2)c(F)cc1OC (centres unmarked) [Example 91, 4-(2-(5-ethoxy-2-fluoro-4-methoxyphenyl)thiazol-4-yl)-1,2-oxaborolan-2-ol] |
| 9.87 | 0.5 | 460 | 1.66 |  |  |  | COc1cnc(-c2cccc(C3COB(O)C3)c2)nc1OC1CCCC1 (centres unmarked) [Example 93, 4-(3-(4-(cyclopentyloxy)-5-methoxypyrimidin-2-yl)phenyl)-1,2-oxaborolan-2-ol] |
| 9.58 | 12.5 | 606 | 3.88 |  |  |  | CCOc1c(OC)ccc(-c2cncc(C3COB(O)C3)c2)c1C(F)(F)F (centres unmarked) [Example 94, 4-(5-(3-ethoxy-4-methoxy-2-(trifluoromethyl)phenyl)pyridin-3-yl)-1,2-oxaborolan-2-ol] |
